Results as given in patent US12606543B2, “Indole derivatives as serotonergic agents useful for the treatment of disorders related thereto” (priority 2023, dated 2026).

Legend:
human 5-HT2B receptor = human 5-HT2B receptor (Homo sapiens, UniProt P41595); test: Human 5-HT2B FLIPR calcium mobilization assay; type: cell-based; set-up: expressed in transfected cells; host or cells: HEK293; conditions: calcium mobilization FLIPR; for Emax (% of serotonin): HEK293 cells, relative to maximum response of serotonin; for EC50: stably transfected HEK293 cells, read-out: EC50
Method: Compound potency (EC50) and efficacy (Max response) against the human 5-HT2B receptor in stably transfected HEK293 cells were determined in a calcium mobilization-based assay.
Cells were seeded in a total volume of 20 μL into white walled, 384-well microplates and incubated at 37° C. overnight. Prior to testing, cell plating media was exchanged with 20 μL of Dye Loading buffer (HBSS+20 mM HEPES containing 1× Dye, 1× Additive A, and 2.5 mM Probenecid). Plates were incubated at 37° C. for 45 mins followed by 15 mins at room temperature.
(§1) 10 μL of assay buffer (HBSS+20 mM HEPES) were added to cells. Intermediate dilution of sample stocks was performed to generate 4× samples in assay buffer. Assay plates and compound plates were loaded into the FLIPR instrument. 10 μL of sample was added using the FLIPR onboard robotics after 5 seconds of starting calcium measurement. A final assay vehicle concentration was 1%. The results are expressed as percent efficacy relative to the maximum response of the control ligand (serotonin) in Table 12.
Compound potency (EC50) and efficacy (Max response) against the human 5-HT2B receptor in stably transfected HE K293 cells was determined in a calcium mobilization-based assay.
as §1, with “HEPES) was” for “HEPES) were”, “of samples were” for “of sample was”, “5 secs” for “5 seconds”, “measurement. The” for “measurement. A”, “Table 62.” for “Table 12.”

[1] = Liver microsomes stability, human; type: in vitro ADME; conditions: human liver microsomes; for half-life at 2 μM / microsomal CLint at 2 μM: 2 μM compound, 0.5 mg/mL microsomes; for CLint scaled at 2 μM: read-out: Scaled-up CLint
Method: (§2) The objective of this study was to estimate in vitro metabolic stability of exemplary compounds of Formula (I) or a pharmaceutically acceptable salt, solvate, and/or prodrug thereof in pooled human, male rat, and male mouse liver microsomes. The concentrations of compounds in reaction systems were evaluated by LC-MS/MS for estimating the stability in pooled human, male rat, and male mouse liver microsomes. The in vitro intrinsic clearances of test compounds were determined as well.
(§3) A master solution in the “Incubation Plate” containing phosphate buffer, ultra-pure H2O, MgCl2 solution and liver microsomes was made according to Table 33. The mixture was pre-warmed at 37° C. water bath for 5 minutes.
(§4) 40 μL of 10 mM nicotinamide adenine dinucleotide phosphate (NADPH) solution was added to each well. The final concentration of NADPH was 1 mM. The negative control samples were prepared by replacing NADPH with 40 μL of ultra-pure H2O. Samples were prepared in duplicate. Negative controls were prepared in singlet.
(§5) The reaction was started with the addition of 4 μL of 200 μM exemplary test compounds of the disclosure or control compounds to each master solution to get the final concentration of 2 μM. This study was performed in duplicate.
(§6) Aliquots of 50 μL were taken from the reaction solution at 0, 15, 30, 45, and 60 minutes. The reaction solutions were stopped by the addition of 4 volumes of cold methanol with IS (100 nM alprazolam, 200 nM imipramine, 200 nM labetalol, and 2 μM ketoprofen). Samples were centrifuged at 3,220 g for 40 minutes. Aliquot of 90 μL of the supernatant was mixed with 90 μL of ultra-pure H2O and then was used for LC-MS/MS analysis.
(§7) LC/MS analysis was performed for all samples from this study using a Shimadzu liquid chromatograph separation system equipped with degasser DGU-20A5R; solvent delivery unit LC-30AD; system controller SIL-30AC; column oven CTO-30A; CTC Analytics HTC PAL System. Mass spectrometric analysis was performed using a Triple Quad™ 5500 instrument.
(§8) All calculations were carried out using Microsoft Excel. Peak area ratios of test compound to internal standard (listed in the below table) were determined from extracted ion chromatograms.
(§9) All calculations were carried out using Microsoft Excel. Peak areas were determined from extracted ion chromatograms. The slope value, k, was determined by linear regression of the natural logarithm of the remaining percentage of the parent drug vs. incubation time curve.
(§10) The in vitro half-life (in vitro t1/2) was determined from the slope value:
(§11) Conversion of the in vitro t1/2 (min) into the in vitro intrinsic clearance (in vitro CLint, in μL/min/mg proteins) was done using the following equation (mean of duplicate determinations): […]
as §2, with “solvate” for “solvate,”, “rat” for “rat,”
(§12) A master solution in the “Incubation Plate” containing phosphate buffer, ultra-pure H2O, MgCl2 solution and liver microsomes was made according to Table 67. The mixture was pre-warmed at 37° C. water bath for 5 minutes.
(§13) 40 μL of 10 mM NADPH solution was added to each well. The final concentration of NADPH was 1 mM. The negative control samples were prepared by replacing NADPH with 40 μL of ultra-pure H2O. Samples were prepared in duplicate. Negative controls were prepared in singlet
Aliquots of 50 μL were taken from the reaction solution at 0, 15, 30, 45 and 60 minutes. The reaction solutions were stopped by the addition of 4 volumes of cold methanol with IS (100 nM alprazolam, 200 nM imipramine, 200 nM labetalol and 2 μM ketoprofen).

[2] = Liver microsomes stability, rat; type: in vitro ADME; conditions: rat liver microsomes; for half-life at 2 μM / microsomal CLint at 2 μM / CLint scaled at 2 μM: male; for half-life at 2 μM / microsomal CLint at 2 μM: 2 μM compound, 0.5 mg/mL microsomes; for CLint scaled at 2 μM: read-out: Scaled-up CLint
Method: as §2, §3, §4, §5, §6, §7, §8, §9, §10, §11
as §2, with “solvate” for “solvate,”, “rat” for “rat,”
as §12, §13
(§14) Aliquots of 50 μL were taken from the reaction solution at 0, 15, 30, 45 and 60 minutes. The reaction solutions were stopped by the addition of 4 volumes of cold methanol with IS (100 nM alprazolam, 200 nM imipramine, 200 nM labetalol and 2 μM ketoprofen). […]

[3] = Liver microsomes stability, mouse; type: in vitro ADME; conditions: mouse liver microsomes; for half-life at 2 μM / microsomal CLint at 2 μM / CLint scaled at 2 μM: male; for half-life at 2 μM / microsomal CLint at 2 μM: pooled liver microsomes, 2 μM compound, 0.5 mg/mL microsomes; for CLint scaled at 2 μM: read-out: Scaled-up CLint
Method: as §2, §3, §4, §5, §6, §7, §8, §9, §10, §11
as §2, with “solvate” for “solvate,”, “rat” for “rat,”
as §12, §13, §14

human 5-HT2B receptor, sequence (P41595 whole entry): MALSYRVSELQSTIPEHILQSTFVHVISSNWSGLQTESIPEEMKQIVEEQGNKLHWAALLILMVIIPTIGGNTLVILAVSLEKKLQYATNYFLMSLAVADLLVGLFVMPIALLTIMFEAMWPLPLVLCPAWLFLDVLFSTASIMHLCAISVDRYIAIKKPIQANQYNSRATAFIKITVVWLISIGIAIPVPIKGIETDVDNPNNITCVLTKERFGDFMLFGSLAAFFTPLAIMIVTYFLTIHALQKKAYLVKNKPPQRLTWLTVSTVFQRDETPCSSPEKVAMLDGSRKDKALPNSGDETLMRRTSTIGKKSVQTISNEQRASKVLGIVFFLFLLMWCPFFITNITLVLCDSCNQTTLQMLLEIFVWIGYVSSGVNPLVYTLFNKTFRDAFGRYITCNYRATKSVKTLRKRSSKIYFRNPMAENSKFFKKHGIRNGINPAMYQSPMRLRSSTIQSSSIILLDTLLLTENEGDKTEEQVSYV

[2H]C([2H])(c1c[nH]c2ccc(OCCCCN3C(=O)c4ccccc4C3=O)cc12)[C@H]1CCCN1C([2H])([2H])[2H] [(R) I-244, (R)-2-(4-((3-((1-(Methyl-d3)pyrrolidin-2-yl)methyl-d2)-1H-indol-5-yl)oxy)butyl)isoindoline-1,3-dione]
Emax (% of serotonin) (human 5-HT2B receptor): 92.75 % of serotonin
EC50 (human 5-HT2B receptor): 2.5 nM
Predicted hepatic CL [1]: 19.32 mL/min/kg
half-life at 2 μM [1]: 5.98 min
microsomal CLint at 2 μM [1]: 232 µL/min/mg
Remaining Percentage ([1]; With Cofactors, 0 min): 100.00%
Remaining Percentage ([1]; With Cofactors, 30 min): 3.10%
Remaining Percentage ([1]; With Cofactors, 60 min): 0.00%
Remaining Percentage ([1]; Without Cofactors, 0 min): 100.00%
Remaining Percentage ([1]; Without Cofactors, 30 min): 94.44%
Remaining Percentage ([1]; Without Cofactors, 60 min): 88.07%
CLint scaled at 2 μM [1]: 290 mL/min/kg
half-life at 2 μM [2]: 6.89 min
microsomal CLint at 2 μM [2]: 201 µL/min/mg
CLint scaled at 2 μM [2]: 360 mL/min/kg
Predicted hepatic CL [2]: 47.87 mL/min/kg
Remaining Percentage ([2]; With Cofactors, 0 min): 100.00%
Remaining Percentage ([2]; With Cofactors, 30 min): 4.90%
Remaining Percentage ([2]; With Cofactors, 60 min): 0.57%
Remaining Percentage ([2]; Without Cofactors, 0 min): 100.00%
Remaining Percentage ([2]; Without Cofactors, 30 min): 94.87%
Remaining Percentage ([2]; Without Cofactors, 60 min): 87.40%
half-life at 2 μM [3]: < 4.51 min
microsomal CLint at 2 μM [3]: > 307 µL/min/mg
CLint scaled at 2 μM [3]: > 1340 mL/min/kg
Predicted hepatic CL [3]: >84.35 mL/min/kg
Remaining Percentage ([3]; With Cofactors, 0 min): 100.00%
Remaining Percentage ([3]; With Cofactors, 30 min): 0.00%
Remaining Percentage ([3]; With Cofactors, 60 min): 0.00%
Remaining Percentage ([3]; Without Cofactors, 0 min): 100.00%
Remaining Percentage ([3]; Without Cofactors, 30 min): 98.38%
Remaining Percentage ([3]; Without Cofactors, 60 min): 86.59%

[2H]C([2H])(c1c[nH]c2ccc(OCCCCCN3C(=O)c4ccccc4C3=O)cc12)[C@H]1CCCN1C([2H])([2H])[2H] [(R) I-245, (R)-2-(5-((3-((1-(Methyl-d3)pyrrolidin-2-yl)methyl-d2)-1H-indol-5-yl)oxy)pentyl)isoindoline-1,3-dione]
Emax (% of serotonin) (human 5-HT2B receptor): 53.91 % of serotonin
EC50 (human 5-HT2B receptor): 11.2 nM
Predicted hepatic CL [1]: 18.11 mL/min/kg
half-life at 2 μM [1]: 12 min
microsomal CLint at 2 μM [1]: 115 µL/min/mg
Remaining Percentage ([1]; With Cofactors, 0 min): 100.00%
Remaining Percentage ([1]; With Cofactors, 30 min): 14.62%
Remaining Percentage ([1]; With Cofactors, 60 min): 3.13%
Remaining Percentage ([1]; Without Cofactors, 0 min): 100.00%
Remaining Percentage ([1]; Without Cofactors, 30 min): 101.09%
Remaining Percentage ([1]; Without Cofactors, 60 min): 98.91%
CLint scaled at 2 μM [1]: 145 mL/min/kg
half-life at 2 μM [2]: < 4.51 min
microsomal CLint at 2 μM [2]: > 307 µL/min/mg
CLint scaled at 2 μM [2]: > 550 mL/min/kg
Predicted hepatic CL [2]: >50.17 mL/min/kg
Remaining Percentage ([2]; With Cofactors, 0 min): 100.00%
Remaining Percentage ([2]; With Cofactors, 30 min): 0.62%
Remaining Percentage ([2]; With Cofactors, 60 min): 0.00%
Remaining Percentage ([2]; Without Cofactors, 0 min): 100.00%
Remaining Percentage ([2]; Without Cofactors, 30 min): 95.83%
Remaining Percentage ([2]; Without Cofactors, 60 min): 94.10%
half-life at 2 μM [3]: 5.12 min
microsomal CLint at 2 μM [3]: 271 µL/min/mg
CLint scaled at 2 μM [3]: 1180 mL/min/kg
Predicted hepatic CL [3]: 83.65 mL/min/kg
Remaining Percentage ([3]; With Cofactors, 0 min): 100.00%
Remaining Percentage ([3]; With Cofactors, 30 min): 1.72%
Remaining Percentage ([3]; With Cofactors, 60 min): 0.25%
Remaining Percentage ([3]; Without Cofactors, 0 min): 100.00%
Remaining Percentage ([3]; Without Cofactors, 30 min): 100.00%
Remaining Percentage ([3]; Without Cofactors, 60 min): 93.17%
